{
  "source": "patent US11058678B2",
  "about": "(Enanta Pharmaceuticals, Inc., priority 2018, dated 2021)",
  "data": [
    {"test_system": "HBV (2.2.15 cells)", "experiment": "Antiviral activity in 2.2.15 cells: reduction of viral product accumulation (qPCR of lysates, HBsAg or HBeAg ELISA)", "format": "cell-based, hepatitis B virus (HBV)", "conditions": "Hepatitis B virus, 120 h, day 5 post treatment, 50% reduction of viral product accumulation in lysates or supernatants vs no drug controls, readout (qPCR, HBsAg, HBeAg) not specified", "method": "2.2.15 cells are passaged upon attaining confluency in DMEM/F12 media in the presence of 10% FBS, Penn/Strep, and 250 ug/mL G418. Novel compounds are 5 fold serially diluted in DMSO and added to 96 well plates containing 35,000 cells/well at a 1:200 dilution so that the final concentration of DMSO is 0.5%. On day 5, post treatment cell lysates and supernatants are harvested for analysis.\nCells are lysed using Agilent Sidestep Lysis buffer, diluted 1:100 and quantified via quantitative real time PCR. Commercially available ELISA kits are used to quantitate the viral proteins HBsAg (Alpco) or HBeAg (US Biological) by following the manufacturer's recommended protocol after diluting samples to match the linear range of their respective assays. Irrespective of readout, compound concentrations that reduce viral product accumulation in the cell lysates or supernatants by 50% relative to no drug controls (EC50) are reported; EC50 ranges are as follows: A<0.1 μM; B 0.1-1 μM; C>1 μM.", "units": {"EC50": "nM"}, "values": [
      {"smiles": "CC1(C)Cc2c3c(cc(-c4cn[nH]c4)c2O1)-c1cc(=O)c(C(=O)O)cn1[C@H](C(C)(C)C)C3", "note": "[Example 147, (S)-5-(tert-butyl)-2,2-dimethyl-9-oxo-12-(1H-pyrazol-4-yl)-2,3,4,9-tetrahydro-5H-furo[3,2-f]pyrido[2,1-a]isoquinoline-8-carboxylic Acid]", "EC50": "> 1000"},
      {"smiles": "Cn1nccc1-c1cc2c(c3c1OC(C)(C)C3)C[C@@H](C(C)(C)C)n1cc(C(=O)O)c(=O)cc1-2", "note": "[Example 150, (S)-5-(tert-butyl)-2,2-dimethyl-12-(1-methyl-1H-pyrazol-5-yl)-9-oxo-2,3,4,9-tetrahydro-5H-furo[3,2-f]pyrido[2,1-a]isoquinoline-8-carboxylic Acid]", "EC50": "> 1000"},
      {"smiles": "CC(C)[C@@H]1Cc2c(cc(-c3ccco3)c3c2CCO3)-c2cc(=O)c(C(=O)O)cn21", "note": "[Example 101, (S)-12-(furan-2-yl)-5-isopropyl-9-oxo-2,3,4,9-tetrahydro-5H-furo[3,2-f]pyrido[2,1-a]isoquinoline-8-carboxylic Acid]", "EC50": "< 100"},
      {"smiles": "CC(C)[C@@H]1Cc2c(cc(-c3ccn(C)n3)c3c2CCO3)-c2cc(=O)c(C(=O)O)cn21", "note": "[Example 98, (S)-5-isopropyl-12-(1-methyl-1H-pyrazol-3-yl)-9-oxo-2,3,4,9-tetrahydro-5H-furo[3,2-f]pyrido[2,1-a]isoquinoline-8-carboxylic Acid]", "EC50": "> 1000"},
      {"smiles": "CC(C)[C@@H]1Cc2c(cc(-c3ccc(F)cc3)c3c2CCO3)-c2cc(=O)c(C(=O)O)cn21", "note": "[Example 89, (S)-12-(4-fluorophenyl)-5-isopropyl-9-oxo-2,3,4,9-tetrahydro-5H-furo[3,2-f]pyrido[2,1-a]isoquinoline-8-carboxylic Acid]", "EC50": "< 100"},
      {"smiles": "CC(C)(C)[C@@H]1Cc2c(cc(-c3ccncc3)c3c2CCO3)-c2cc(=O)c(C(=O)O)cn21", "note": "[Example 74, (S)-5-(tert-butyl)-9-oxo-12-(pyridin-4-yl)-2,3,4,9-tetrahydro-5H-furo[3,2-f]pyrido[2,1-a]isoquinoline-8-carboxylic Acid]", "EC50": "< 100"},
      {"smiles": "COCCCOc1cc2c(cc1-c1cccs1)-c1cc(=O)c(C(=O)O)cn1[C@H]1[C@@H]2COC1(C)C", "note": "[Example 142, (3aS,12bR)-11-(3-methoxypropoxy)-3,3-dimethyl-7-oxo-10-(thiophen-2-yl)-3,3a,7,12b-tetrahydro-1H-furo[3,4-c]pyrido[2,1-a]isoquinoline-6-carboxylic Acid]", "EC50": "< 100"},
      {"smiles": "CC(C)(C)[C@@H]1Cc2c(cc(C3COC3)c3c2CCO3)-c2cc(=O)c(C(=O)O)cn21", "note": "[Example 131, (S)-5-(tert-butyl)-12-(oxetan-3-yl)-9-oxo-2,3,4,9-tetrahydro-5H-furo[3,2-f]pyrido[2,1-a]isoquinoline-8-carboxylic Acid]", "EC50": "< 100"},
      {"smiles": "CC(C)(C)[C@@H]1Cc2c(cc(N3CC4(CCO4)C3)c3c2CCO3)-c2cc(=O)c(C(=O)O)cn21", "note": "[Example 120, (S)-5-(tert-butyl)-9-oxo-12-(1-oxa-6-azaspiro[3.3]heptan-6-yl)-2,3,4,9-tetrahydro-5H-furo[3,2-f]pyrido[2,1-a]isoquinoline-8-carboxylic Acid]", "EC50": "> 1000"},
      {"smiles": "CC(C)[C@@H]1Cc2c(cc(-c3ccccc3F)c3c2CCO3)-c2cc(=O)c(C(=O)O)cn21", "note": "[Example 108, (S)-12-(2-fluorophenyl)-5-isopropyl-9-oxo-2,3,4,9-tetrahydro-5H-furo[3,2-f]pyrido[2,1-a]isoquinoline-8-carboxylic Acid]", "EC50": "< 100"},
      {"smiles": "CC(C)(C)[C@@H]1Cc2c(cc(-c3cn[nH]c3)c3c2CCO3)-c2cc(=O)c(C(=O)O)cn21", "note": "[Example 87, (S)-5-(tert-butyl)-9-oxo-12-(1H-pyrazol-4-yl)-2,3,4,9-tetrahydro-5H-furo[3,2-f]pyrido[2,1-a]isoquinoline-8-carboxylic Acid]", "EC50": "< 100"},
      {"smiles": "CC(C)[C@@H]1Cc2c(cc(-c3cn[nH]c3)c3c2CCO3)-c2cc(=O)c(C(=O)O)cn21", "note": "[Example 102, (S)-5-isopropyl-9-oxo-12-(1H-pyrazol-4-yl)-2,3,4,9-tetrahydro-5H-furo[3,2-f]pyrido[2,1-a]isoquinoline-8-carboxylic Acid]", "EC50": "< 100"},
      {"smiles": "CC(C)(C)[C@@H]1Cc2c(cc(-c3ccn[nH]3)c3c2CCO3)-c2cc(=O)c(C(=O)O)cn21", "note": "[Example 82, (S)-5-(tert-butyl)-9-oxo-12-(1H-pyrazol-5-yl)-2,3,4,9-tetrahydro-5H-furo[3,2-f]pyrido[2,1-a]isoquinoline-8-carboxylic Acid]", "EC50": "< 100"},
      {"smiles": "COCCCOc1cc2c(cc1-c1nnc(C(F)(F)F)o1)-c1cc(=O)c(C(=O)O)cn1[C@H](C(C)(C)C)C2", "note": "[Example 53, (S)-6-(tert-butyl)-9-(3-methoxypropoxy)-2-oxo-10-(5-(trifluoromethyl)-1,3,4-oxadiazol-2-yl)-6,7-dihydro-2H-pyrido[2,1-a]isoquinoline-3-carboxylic Acid]", "EC50": "< 100"},
      {"smiles": "COCCCOc1cc2c(cc1-c1ccccc1Cl)-c1cc(=O)c(C(=O)O)cn1[C@H]1[C@@H]2COC1(C)C", "note": "[Example 139, (3aS,12bR)-10-(2-chlorophenyl)-11-(3-methoxypropoxy)-3,3-dimethyl-7-oxo-3,3a,7,12b-tetrahydro-1H-furo[3,4-c]pyrido[2,1-a]isoquinoline-6-carboxylic Acid]", "EC50": "< 100"},
      {"smiles": "COCCCOc1cc2c(cc1-n1cccn1)-c1cc(=O)c(C(=O)O)cn1[C@@H](C(C)(C)C)C2", "note": "[Example 51, (R)-6-(tert-butyl)-9-(3-methoxypropoxy)-2-oxo-10-(1H-pyrazol-1-yl)-6,7-dihydro-2H-pyrido[2,1-a]isoquinoline-3-carboxylic Acid]", "EC50": "< 100"},
      {"smiles": "CC(C)[C@@H]1Cc2c(cc(-c3ccncc3)c3c2CCO3)-c2cc(=O)c(C(=O)O)cn21", "note": "[Example 104, (S)-5-isopropyl-9-oxo-12-(pyridin-4-yl)-2,3,4,9-tetrahydro-5H-furo[3,2-f]pyrido[2,1-a]isoquinoline-8-carboxylic Acid]", "EC50": "< 100"},
      {"smiles": "CC1(C)Cc2c3c(cc(-c4ccsc4)c2O1)-c1cc(=O)c(C(=O)O)cn1[C@H](C(C)(C)C)C3", "note": "[Example 149, (S)-5-(tert-butyl)-2,2-dimethyl-9-oxo-12-(thiophen-3-yl)-2,3,4,9-tetrahydro-5H-furo[3,2-f]pyrido[2,1-a]isoquinoline-8-carboxylic Acid]", "EC50": "> 1000"},
      {"smiles": "COCCCOc1cc2c(cc1-n1ccc3ccccc31)-c1cc(=O)c(C(=O)O)cn1[C@H](C(C)(C)C)C2", "note": "[Example 52, (S)-6-(tert-butyl)-10-(1H-indol-1-yl)-9-(3-methoxypropoxy)-2-oxo-6,7-dihydro-2H-pyrido[2,1-a]isoquinoline-3-carboxylic Acid]", "EC50": "< 100"},
      {"smiles": "COCCCOc1cc2c(cc1-c1nnnn1C)-c1cc(=O)c(C(=O)O)cn1[C@H](C(C)(C)C)C2", "note": "[Example 35, (S)-6-(tert-butyl)-9-(3-methoxypropoxy)-10-(1-methyl-1H-tetrazol-5-yl)-2-oxo-6,7-dihydro-2H-pyrido[2,1-a]isoquinoline-3-carboxylic Acid]", "EC50": "< 100"},
      {"smiles": "COCCCOc1cc2c(cc1-c1cccc(Cl)c1)-c1cc(=O)c(C(=O)O)cn1[C@H]1[C@@H]2COC1(C)C", "note": "[Example 138, (3aS,12bR)-10-(3-chlorophenyl)-11-(3-methoxypropoxy)-3,3-dimethyl-7-oxo-3,3a,7,12b-tetrahydro-1H-furo[3,4-c]pyrido[2,1-a]isoquinoline-6-carboxylic Acid]", "EC50": "< 100"},
      {"smiles": "COCCCOc1cc2c(cc1-c1ccc(OC(C)C)cc1)-c1cc(=O)c(C(=O)O)cn1[C@H](C(C)(C)C)C2", "note": "[Example 38, (S)-6-(tert-butyl)-10-(4-isopropoxyphenyl)-9-(3-methoxypropoxy)-2-oxo-6,7-dihydro-2H-pyrido[2,1-a]isoquinoline-3-carboxylic Acid]", "EC50": "> 1000"},
      {"smiles": "Cn1ccc(-c2cc3c(c4c2OC(C)(C)C4)C[C@@H](C(C)(C)C)n2cc(C(=O)O)c(=O)cc2-3)n1", "note": "[Example 144, (S)-5-(tert-butyl)-2,2-dimethyl-12-(1-methyl-1H-pyrazol-3-yl)-9-oxo-2,3,4,9-tetrahydro-5H-furo[3,2-f]pyrido[2,1-a]isoquinoline-8-carboxylic Acid]", "EC50": "> 1000"},
      {"smiles": "CCn1cc(-c2cc3c(cc2OCCCOC)C[C@@H](C(C)(C)C)n2cc(C(=O)O)c(=O)cc2-3)cn1", "note": "[Example 34, (S)-6-(tert-butyl)-10-(1-ethyl-1H-pyrazol-4-yl)-9-(3-methoxypropoxy)-2-oxo-6,7-dihydro-2H-pyrido[2,1-a]isoquinoline-3-carboxylic Acid]", "EC50": "< 100"},
      {"smiles": "Cn1nccc1-c1cc2c(c3c1OCC3)C[C@@H](C(C)(C)C)n1cc(C(=O)O)c(=O)cc1-2", "note": "[Example 68, (S)-5-(tert-butyl)-12-(1-methyl-1H-pyrazol-5-yl)-9-oxo-2,3,4,9-tetrahydro-5H-furo[3,2-f]pyrido[2,1-a]isoquinoline-8-carboxylic Acid]", "EC50": "< 100"},
      {"smiles": "COCCCOc1cc2c(cc1-c1cnn(C)c1)-c1cc(=O)c(C(=O)O)cn1[C@H]1[C@@H]2COC1(C)C", "note": "[Example 123, (3aS,12bR)-11-(3-methoxypropoxy)-3,3-dimethyl-10-(1-methyl-1H-pyrazol-4-yl)-7-oxo-3,3a,7,12b-tetrahydro-1H-furo[3,4-c]pyrido[2,1-a]isoquinoline-6-carboxylic Acid]", "EC50": "< 100"},
      {"smiles": "CC(C)[C@@H]1Cc2c(cc(N3CCCC3)c3c2CCO3)-c2cc(=O)c(C(=O)O)cn21", "note": "[Example 110, (S)-5-isopropyl-9-oxo-12-(pyrrolidin-1-yl)-2,3,4,9-tetrahydro-5H-furo[3,2-f]pyrido[2,1-a]isoquinoline-8-carboxylic Acid]", "EC50": "< 100"}
    ]}
  ]
}
